Measured values as given in patent publication US9670203B2 (BeiGene, LTD., priority 2013, dated 2017).
Like-named read-outs stand apart in the source and are kept apart here.

Assays:
A375 = assay: Anti-proliferative activity EC50 assay (CellTiter-Glo) in A375; format: cell-based; settings: Homo sapiens, A-375, 72 h; 3-day exposure; read-out: Cell Proliferation EC50 (nM) A375
Description: The growth-inhibitory activity of compounds in A375 and p61-A375, was determined using CellTiter-Glo luminescent cell viability assay (Promega). The 2,000 cells were seeded per well of a 96-well plate to ensure logarithmic growth could occur over the 3 days treatment period. Cells were left to attach for 16 hours, cells were treated in duplicate with a 10-point dilution series. Following a 3-day exposure to compounds disclosed herein, a volume of CellTiter-Glo reagent equal to the volume of cell culture medium present in each well was added. Mixture was mixed on an orbital shaker for 2 minutes to allow cell lysis, followed by 10 minutes incubation at room temperature to allow stabilization of luminescent signal, which corresponded to quantitation of ATP and thus the quantitation of metabolically active cells. Luminescent signal was measured using Pherastar FS reader (BMG Labtech).
EC50 values for growth inhibition were calculated by fitting dose-dependent data to the four-parameter logistic model using GraphPad Prism software.

C-Raf (Y340D/Y341D) = C-Raf (Y340D/Y341D) (Homo sapiens (Human), UniProt P04049, Y340D/Y341D); assay: Raf IC50 assay, time-resolved fluorescence energy transfer, C-Raf (Y340D/Y341D); format: biochemical; settings: 0.1 mM ATP
Description: The assay was carried out in reactions (10 μL) containing 0.0625 nM B-Raf or 0.5 nM C-Raf, 25 mM Tris pH7.4, 10 mM MgCl2, 0.5 mM EGTA, 0.5 mM Na3VO4, 5 mM beta-glycerophosphate, 0.01% Triton X-100, 2.5 mM DTT, 0.1% BSA, 0.1 mM ATP, 13.7 nM GST-tagged MEK1 (Full-length protein with K97R mutation, recombinant protein purified from bacterial expression system) and 0-5 μM compounds disclosed herein (final concentration of 1% DMSO). The enzyme was incubated with the compounds at room temperature for 60 minutes and the reactions were initiated by the addition of ATP and GST-MEK1. After reaction at room temperature for 60 minutes, an equal volume of stop/detection solution was added according to the manufacture's instruction (CisBio Bioassays). The stop/detection solution contained Eu^3+ cryptate-conjugated anti-phospho MEK1/2 (Ser217/221) rabbit polyclonal antibody and d2-conjugated anti-GST mouse monoclonal antibody in buffer containing 25 mM Tris pH7.4, 400 mM KF, 50 mM EDTA, 0.01% BSA and 0.01% Triton X-100. Plates were sealed and incubated at room temperature for 2 hours, and the TR-FRET signals (ratio of fluorescence emission at 665 nm over emission at 620 nm with excitation at 337 nm wavelength) were recorded on a PHERAstar FS plate reader (BMG Labtech). Phosphorylation of MEK1 led to the binding of anti-phospho-MEK1/2 antibody to GST-MEK1 protein that place fluorescent donor (Eu^3+ crypate) in close proximity to the accepter d2 on the anti-GST antibody, thus resulting in a high degree of fluorescence resonance energy transfer from the donor fluorophore (at 620 nm) to the acceptor fluorophore (at 665 nm). […] The IC50 for each compound was derived from fitting the dose-response % inhibition data to the four-parameter logistic model by Graphpad Prism software.

B-Raf (V600E) = B-Raf (V600E) (Homo sapiens (Human), UniProt P15056, V600E); assay: Raf IC50 assay, time-resolved fluorescence energy transfer, B-Raf (V600E); format: biochemical; settings: 0.1 mM ATP; read-out: IC50 (nM) B_Raf^V600E
Description: The enzyme was incubated with the compounds at room temperature for 60 minutes and the reactions were initiated by the addition of ATP and GST-MEK1. After reaction at room temperature for 60 minutes, an equal volume of stop/detection solution was added according to the manufacture's instruction (CisBio Bioassays). […] The IC50 for each compound was derived from fitting the dose-response % inhibition data to the four-parameter logistic model by Graphpad Prism software.

wild type B-Raf = wild type B-Raf (Homo sapiens (Human), UniProt P15056); assay: WT B-Raf IC50 assay, time-resolved fluorescence energy transfer; format: biochemical
Description: The IC50 for each compound was calculated by non linear regression by Graphpad Prism software.

[1] = 2.5 mM ATP, read-out: IC50 (nM) B-Raf^WT 2.5 mM ATP
[2] = Km ATP (2.9 μM ATP), read-out: IC50 (nM) B-Raf^WT Km ATP

wild type B-Raf, sequence (P15056 whole entry): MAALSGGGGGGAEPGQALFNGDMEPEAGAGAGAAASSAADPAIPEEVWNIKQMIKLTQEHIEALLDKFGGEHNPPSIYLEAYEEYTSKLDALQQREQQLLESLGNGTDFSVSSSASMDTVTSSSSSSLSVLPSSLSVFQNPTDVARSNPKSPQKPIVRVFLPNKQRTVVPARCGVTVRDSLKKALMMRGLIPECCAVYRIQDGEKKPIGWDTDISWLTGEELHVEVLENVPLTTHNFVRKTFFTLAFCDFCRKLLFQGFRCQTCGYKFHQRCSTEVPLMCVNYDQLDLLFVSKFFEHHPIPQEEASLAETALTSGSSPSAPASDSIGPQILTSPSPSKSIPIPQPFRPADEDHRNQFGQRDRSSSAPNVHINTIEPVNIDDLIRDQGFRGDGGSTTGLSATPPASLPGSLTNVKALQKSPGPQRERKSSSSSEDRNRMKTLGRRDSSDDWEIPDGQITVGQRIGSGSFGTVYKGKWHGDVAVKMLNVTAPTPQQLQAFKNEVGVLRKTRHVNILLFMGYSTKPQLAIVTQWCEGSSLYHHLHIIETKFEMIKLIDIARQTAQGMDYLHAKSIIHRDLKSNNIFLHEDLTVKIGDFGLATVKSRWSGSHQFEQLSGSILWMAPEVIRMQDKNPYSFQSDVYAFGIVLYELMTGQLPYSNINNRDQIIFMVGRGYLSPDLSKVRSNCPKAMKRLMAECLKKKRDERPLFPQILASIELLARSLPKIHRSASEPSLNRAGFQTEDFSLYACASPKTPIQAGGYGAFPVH
B-Raf (V600E), sequence (P15056 whole entry V600E): as the sequence (P15056 whole entry) above, with V600E counted along it
C-Raf (Y340D/Y341D), sequence (P04049 whole entry Y340D/Y341D): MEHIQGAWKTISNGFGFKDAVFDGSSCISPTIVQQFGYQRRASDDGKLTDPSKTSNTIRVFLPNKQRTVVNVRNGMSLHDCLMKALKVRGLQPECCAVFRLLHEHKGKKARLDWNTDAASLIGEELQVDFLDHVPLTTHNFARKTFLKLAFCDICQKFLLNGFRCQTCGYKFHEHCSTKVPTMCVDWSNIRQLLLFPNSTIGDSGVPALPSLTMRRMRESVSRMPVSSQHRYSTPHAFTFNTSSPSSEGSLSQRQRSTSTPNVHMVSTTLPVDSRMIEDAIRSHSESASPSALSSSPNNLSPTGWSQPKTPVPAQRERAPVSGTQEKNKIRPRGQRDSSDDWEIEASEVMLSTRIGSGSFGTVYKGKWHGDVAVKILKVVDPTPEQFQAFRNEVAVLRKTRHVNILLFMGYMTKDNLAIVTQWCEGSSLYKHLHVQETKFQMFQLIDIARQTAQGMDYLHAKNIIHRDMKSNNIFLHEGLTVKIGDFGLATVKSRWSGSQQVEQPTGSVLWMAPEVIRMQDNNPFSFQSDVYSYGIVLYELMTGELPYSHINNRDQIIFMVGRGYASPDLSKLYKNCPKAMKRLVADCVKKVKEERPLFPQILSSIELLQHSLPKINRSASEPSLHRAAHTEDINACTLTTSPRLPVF

| SMILES | EC50 (A375) [nM] | IC50 (C-Raf (Y340D/Y341D)) [nM] | IC50 (B-Raf (V600E)) [nM] | IC50 (wild type B-Raf; [1]) [nM] | IC50 (wild type B-Raf; [2]) [nM] |
| --- | --- | --- | --- | --- | --- |
| O=C1CCc2c(Oc3ccc4c(c3)[C@H]3[C@H](NC(=O)Nc5cc(C(F)(F)F)ccn5)[C@H]3O4)ccnc2N1 [Compound 1.2] | 122 | 0.77 | 4 | 18 | 6.3 |
| CCN1CCN(Cc2ccc(NC(=O)N[C@@H]3[C@H]4Oc5ccc(Oc6ccnc7c6CCC(=O)N7)cc5[C@@H]34)cc2C(F)(F)F)CC1 [Compound 1.73, 1-(4-((4-ethylpiperazin-1-yl)methyl)-3-(trifluoromethyl)phenyl)-3-((1S,1aS,6bS)-5-((7-oxo-5,6,7,8-tetrahydro-1,8-naphthyridin-4-yl)oxy)-1a,6b-dihydro-1H-cyclopropa[b]benzofuran-1-yl)urea] | 1330 | 0.84 | 13 |  | 13 |
| O=C1CCc2c(Oc3ccc4c(c3)[C@H]3[C@H](NC(=O)Nc5cc(F)ccc5F)[C@H]3O4)ccnc2N1 [Compound 1.43] | 96 | 0.26 | 1.2 | 5.9 | 2.1 |
| COc1cc(NC(=O)N[C@@H]2[C@H]3Oc4ccc(Oc5ccnc6c5CCC(=O)N6)cc4[C@@H]23)ccn1 [Compound 1.75, 1-(2-methoxypyridin-4-yl)-3-((1S,1aS,6bS)-5-((7-oxo-5,6,7,8-tetrahydro-1,8-naphthyridin-4-yl)oxy)-1a,6b-dihydro-1H-cyclopropa[b]benzofuran-1-yl)urea] | 405 | 0.27 | 2.2 |  | 2.4 |
| O=C1CCc2c(Oc3ccc4c(c3)[C@H]3[C@H](NC(=O)Nc5cc(F)c(F)c(F)c5)[C@H]3O4)ccnc2N1 [Compound 1.47] | 140 | 0.53 | 4.1 | 23 | 6.4 |
| CC(C)(N)c1cc(NC(=O)N[C@@H]2[C@H]3Oc4ccc(Oc5ccnc6c5CCC(=O)N6)cc4[C@@H]23)cc(C(F)(F)F)c1 [Compound 1.70, 1-(3-(2-aminopropan-2-yl)-5-(trifluoromethyl)phenyl)-3-((1S,1aS,6bS)-5-((7-oxo-5,6,7,8-tetrahydro-1,8-naphthyridin-4-yl)oxy)-1a,6b-dihydro-1H-cyclopropa[b]benzofuran-1-yl)urea] |  | 0.81 | 7.4 |  | 15 |
| Cc1cc(Cl)ccc1NC(=O)N[C@@H]1[C@H]2Oc3ccc(Oc4ccnc5c4CCC(=O)N5)cc3[C@@H]12 [Compound 1.7] |  | 0.35 | 1.1 |  | 2.6 |
| O=C1CCc2c(Oc3ccc4c(c3)[C@H]3[C@H](NC(=O)Nc5ccc(Cl)cc5C(F)(F)F)[C@H]3O4)ccnc2N1 [Compound 1.9] |  | 1.6 | 9.5 |  | 21 |
| O=C1CCc2c(Oc3ccc4c(c3)[C@H]3[C@H](NC(=O)Nc5c(F)cc(F)cc5F)[C@H]3O4)ccnc2N1 [Compound 1.40] |  | 0.2 | 1.6 |  | 2 |
| C#Cc1cccc(NC(=O)N[C@@H]2[C@H]3Oc4ccc(Oc5ccnc6c5CCC(=O)N6)cc4[C@@H]23)c1 [Compound 1.14] | 127 |  | 1.9 | 8.5 | 2.8 |
| O=C1CCc2c(Oc3ccc4c(c3)[C@@H]3[C@@H](NC(=O)Nc5cccc(C(F)(F)F)c5)[C@@H]3O4)ccnc2N1 [Compound 1.71, 1-((1R,1aR,6bR)-5-((7-oxo-5,6,7,8-tetrahydro-1,8-naphthyridin-4-yl)oxy)-1a,6b-dihydro-1H-cyclopropa[b]benzofuran-1-yl)-3-(3-(trifluoromethyl)phenyl)urea] |  | 0.34 | 3 |  |  |
| O=C1CCc2c(Oc3ccc4c(c3)[C@H]3[C@H](NC(=O)NC5CCCC5)[C@H]3O4)ccnc2N1 [Compound 1.51] | 273 |  | 0.59 |  |  |
| O=C1CCc2c(Oc3ccc4c(c3)[C@H]3[C@H](NC(=O)NCc5cccc(F)c5)[C@H]3O4)ccnc2N1 [Compound 1.58] | 534 |  | 0.77 |  |  |
| CNC(=O)c1cc(Oc2ccc3c(c2)[C@H]2[C@H](NC(=O)Nc4ccc(F)c(C(F)(F)F)c4)[C@H]2O3)ccn1 [Compound 2.7] | 464 |  | 33 |  |  |
| O=C1CCc2c(Oc3ccc4c(c3)[C@H]3[C@H](NC(=O)Nc5cc(C(F)(F)F)ccc5F)[C@H]3O4)ccnc2N1 [Compound 1.33] | 137 |  | 9.5 | 75 | 19 |
| CNC(=O)c1cc(Oc2ccc3c(c2)[C@H]2[C@H](NC(=O)Nc4cc(F)c(F)cc4F)[C@H]2O3)ccn1 [Compound 2.8] |  | 3 | 13 |  | 17 |
| CC(C)(C)NC(=O)N[C@@H]1[C@H]2Oc3ccc(Oc4ccnc5c4CCC(=O)N5)cc3[C@@H]12 [Compound 1.77] | 4540 |  | 4.5 |  |  |
| CNC(=O)c1cc(Oc2ccc3c(c2)[C@H]2[C@H](NC(=O)Nc4cccc(C(F)(F)F)c4)[C@H]2O3)ccn1 [Compound 2.6, N-methyl-4-(((1S,1aS,6bS)-1-(3-(3-(trifluoromethyl)phenyl)ureido)-1a,6b-dihydro-1H-cyclopropa[b]benzofuran-5-yl)oxy)picolinamide] | 624 |  | 26 |  |  |
| O=C1CCc2c(Oc3ccc4c(c3)[C@H]3[C@H](NC(=O)N[C@@H]5CCCc6ccccc65)[C@H]3O4)ccnc2N1 [Compound 1.80] | 132 | 0.5 | 4 |  |  |
| O=C1NCc2c(Oc3ccc4c(c3)[C@H]3[C@H](NC(=O)Nc5cc(F)c(F)cc5F)[C@H]3O4)ccnc2N1 [Compound 2.5] | 769 |  | 2.3 |  |  |
| Cc1cccc(Cl)c1NC(=O)N[C@@H]1[C@H]2Oc3ccc(Oc4ccnc5c4CCC(=O)N5)cc3[C@@H]12 [Compound 1.19] | 503 |  | 5.1 |  |  |
| COc1ccc(CNC(=O)N[C@@H]2[C@H]3Oc4ccc(Oc5ccnc6c5CCC(=O)N6)cc4[C@@H]23)cc1 [Compound 1.3] |  | 0.54 | 40 |  |  |
| O=C1CCc2c(Oc3ccc4c(c3)[C@H]3[C@H](NC(=O)Nc5cccc(OC(F)(F)F)c5)[C@H]3O4)ccnc2N1 [Compound 1.60] | 193 |  | 8.6 |  |  |
| O=C1CCc2c(Oc3ccc4c(c3)[C@H]3[C@H](NC(=O)NCc5cccc(C(F)(F)F)c5)[C@H]3O4)ccnc2N1 [Compound 1.54] | 2700 |  | 1.9 |  |  |
| Nc1cc(Oc2ccc3c(c2)[C@H]2[C@H](NC(=O)Nc4cc(F)c(F)cc4F)[C@H]2O3)ccn1 [Compound 2.15] | 10000 |  | 18 |  |  |
| O=C1CCc2c(Oc3ccc4c(c3)[C@H]3[C@H](NC(=O)Nc5ccc(C(F)(F)F)cc5F)[C@H]3O4)ccnc2N1 [Compound 1.20] |  | 2.7 | 13 |  | 23 |
| O=C1CCc2c(Oc3ccc4c(c3)[C@H]3[C@H](NC(=O)N[C@H]5CCCc6ccccc65)[C@H]3O4)ccnc2N1 [Compound 1.79] | 222 | 0.39 | 3.2 |  |  |
| O=C1CCc2c(Oc3ccc4c(c3)[C@H]3[C@H](NC(=O)Nc5ccccc5C(F)(F)F)[C@H]3O4)ccnc2N1 [Compound 1.30] | 583 |  | 3 |  |  |
| O=C1CCc2c(Oc3ccc4c(c3)[C@H]3[C@H](NC(=O)Nc5c(F)ccc(F)c5F)[C@H]3O4)ccnc2N1 [Compound 1.48] | 686 |  | 0.74 | 7.9 | 2.5 |
